Data reported in US20120121591A1 (priority 2009, published 2012).

Tests used:
Type in all cases: cell-based
hKv1.3 = hKv1.3 (Homo sapiens, UniProt P22001); assay: cell-based; conditions: Kv1.3 (IWQ) IC50 (nM, Avg)
[1] = test system: IL-2 secretion from T cells in human whole blood; conditions: read-out: WB (IL-2) IC50 (nM, Avg)
[2] = test system: IFN-g secretion from T cells in human whole blood; conditions: read-out: WB (IFNg) IC50 (nM, Avg)

Chain of hKv1.3 (P22001 whole entry): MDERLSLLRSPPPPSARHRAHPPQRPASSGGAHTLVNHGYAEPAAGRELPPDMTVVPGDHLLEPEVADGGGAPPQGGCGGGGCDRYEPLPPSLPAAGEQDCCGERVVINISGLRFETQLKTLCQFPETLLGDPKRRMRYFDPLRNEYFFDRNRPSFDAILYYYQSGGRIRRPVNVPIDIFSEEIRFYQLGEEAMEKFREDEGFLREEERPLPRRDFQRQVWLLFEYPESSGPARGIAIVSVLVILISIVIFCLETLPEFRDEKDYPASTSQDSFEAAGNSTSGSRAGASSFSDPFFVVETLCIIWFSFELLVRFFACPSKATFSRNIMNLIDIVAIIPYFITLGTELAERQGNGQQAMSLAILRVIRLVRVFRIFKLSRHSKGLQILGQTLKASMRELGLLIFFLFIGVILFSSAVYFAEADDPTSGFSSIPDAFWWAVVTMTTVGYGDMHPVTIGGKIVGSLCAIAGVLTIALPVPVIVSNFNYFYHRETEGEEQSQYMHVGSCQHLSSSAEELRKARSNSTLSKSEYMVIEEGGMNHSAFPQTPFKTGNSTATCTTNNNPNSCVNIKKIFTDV

Row | SMILES | IC50 (hKv1.3) [nM] | IC50 [1] [nM] | IC50 [2] [nM]
1 | CC[C@H](C)[C@@H]1NC(=O)[C@@H](NC(=O)[C@H](CO)NC(=O)[C@@H](N)CCCNC(=N)N)CSSC[C@@H](C(=O)N[C@@H](C)C(=O)O)NC(=O)[C@H]([C@@H](C)O)NC(=O)CNC(=O)[C@@H]2CSSC[C@@H]3NC(=O)[C@H](CCCCN)NC(=O)[C@H](Cc4ccccc4)NC(=O)[C@H](C)NC(=O)[C@H]([C@@H](C)O)NC(=O)[C@H](CSSC[C@H](NC(=O)[C@H](Cc4ccccc4)NC(=O)[C@H](CO)NC(=O)[C@H](CC(C)C)NC(=O)[C@H](CCCNC(=N)N)NC(=O)[C@H](Cc4ccc(O)cc4)NC(=O)[C@H](CCCCN)NC(=O)[C@H](CC(N)=O)NC(=O)[C@H](CO)NC(=O)[C@H](Cc4c[nH]cn4)NC(=O)[C@H](CCCCN)NC3=O)C(=O)N[C@@H](CCCNC(=N)N)C(=O)N[C@@H](CCCCN)C(=O)N[C@@H]([C@@H](C)O)C(=O)N2)NC(=O)[C@H](CCCNC(=N)N)NC(=O)[C@H](CO)NC(=O)[C@H](CCCCN)NC(=O)[C@@H]2CCCN2C(=O)[C@H]([C@@H](C)CC)NC(=O)[C@H]([C@@H](C)O)NC(=O)[C@H](CC(=O)O)NC1=O [[Lys16,Asn21]ShK-Ala] | 33 | 0.891 | 0.693
2 | CC[C@H](C)[C@@H]1NC(=O)[C@@H](NC(=O)[C@H](CO)NC(=O)[C@@H](N)CCCNC(=N)N)CSSC[C@@H](C(=O)O)NC(=O)[C@H]([C@@H](C)O)NC(=O)[C@H](CCCNC(=N)N)NC(=O)[C@@H]2CSSC[C@@H]3NC(=O)[C@H](CCC(N)=O)NC(=O)[C@H](Cc4ccccc4)NC(=O)[C@H](C)NC(=O)[C@H]([C@@H](C)O)NC(=O)[C@H](CSSC[C@H](NC(=O)[C@H](Cc4ccccc4)NC(=O)[C@H](CO)NC(=O)[C@H](CC(C)C)NC(=O)[C@H](CCCNC(=N)N)NC(=O)[C@H](Cc4ccc(O)cc4)NC(=O)[C@H](CCCCN)NC(=O)[C@H](CCSC)NC(=O)[C@H](CO)NC(=O)[C@H](Cc4c[nH]cn4)NC(=O)[C@H](CCCCN)NC3=O)C(=O)N[C@@H](CCCNC(=N)N)C(=O)N[C@@H](CCCCN)C(=O)N[C@@H]([C@@H](C)O)C(=O)N2)NC(=O)[C@H](CCCNC(=N)N)NC(=O)[C@H](CO)NC(=O)[C@H](CCCCN)NC(=O)[C@@H]2CCCN2C(=O)[C@H]([C@@H](C)CC)NC(=O)[C@H]([C@@H](C)O)NC(=O)[C@H](CC(=O)O)NC1=O [[Arg33]ShK] | 0.102 | 0.068 | 0.232
3 | CC[C@H](C)[C@@H]1NC(=O)[C@@H](NC(=O)[C@H](CO)NC(=O)[C@@H](N)CCCNC(=N)N)CSSC[C@@H](C(=O)O)NC(=O)[C@H]([C@@H](C)O)NC(=O)CNC(=O)[C@@H]2CSSC[C@@H]3NC(=O)[C@H](CCC(N)=O)NC(=O)[C@H](Cc4ccccc4)NC(=O)[C@H](C)NC(=O)[C@H](CCCCN)NC(=O)[C@H](CSSC[C@H](NC(=O)[C@H](Cc4ccccc4)NC(=O)[C@H](CO)NC(=O)[C@H](CC(C)C)NC(=O)[C@H](CCCNC(=N)N)NC(=O)[C@H](Cc4ccc(O)cc4)NC(=O)[C@H](CCCCN)NC(=O)[C@H](CCSC)NC(=O)[C@H](CO)NC(=O)[C@H](Cc4c[nH]cn4)NC(=O)[C@H](CCCCN)NC3=O)C(=O)N[C@@H](CCCNC(=N)N)C(=O)N[C@@H](CCCCN)C(=O)N[C@@H]([C@@H](C)O)C(=O)N2)NC(=O)[C@H](CCCNC(=N)N)NC(=O)[C@H](CO)NC(=O)[C@H](CCCCN)NC(=O)[C@@H]2CCCN2C(=O)[C@H]([C@@H](C)CC)NC(=O)[C@H]([C@@H](C)O)NC(=O)[C@H](CC(=O)O)NC1=O [[Lys13]ShK] | 0.157 | 0.257 | 0.363
4 | CCCC[C@@H]1NC(=O)[C@H](CO)NC(=O)[C@H](Cc2c[nH]cn2)NC(=O)[C@H](CCCCN)NC(=O)[C@@H]2CSSC[C@@H]3NC(=O)[C@H]([C@@H](C)O)NC(=O)[C@H](CCCCN)NC(=O)[C@H](CCCNC(=N)N)NC(=O)[C@H](CSSC[C@H](NC(=O)[C@H](CCCNC(=N)N)NC(=O)[C@H](CO)NC(=O)[C@H](CCCCN)NC(=O)[C@@H]4CCCN4C(=O)[C@H]([C@@H](C)CC)NC(=O)[C@H]([C@@H](C)O)NC(=O)[C@H](CC(=O)O)NC(=O)[C@H]([C@@H](C)CC)NC(=O)[C@@H](NC(=O)[C@H](CO)NC(=O)[C@@H](N)CCCNC(=N)N)CSSC[C@@H](C(N)=O)NC(=O)[C@H]([C@@H](C)O)NC(=O)CNC3=O)C(=O)N[C@@H]([C@@H](C)O)C(=O)N[C@@H](C)C(=O)N[C@@H](Cc3ccccc3)C(=O)N[C@@H](CCC(N)=O)C(=O)N2)NC(=O)[C@H](Cc2ccccc2)NC(=O)[C@H](CO)NC(=O)[C@H](CC(C)C)NC(=O)[C@H](CCCNC(=N)N)NC(=O)[C@H](Cc2ccc(O)cc2)NC(=O)[C@H](CCCCN)NC1=O [[Nle21]ShK-amide] | 0.04 | 0.325 | 1.13
5 | CC[C@H](C)[C@@H]1NC(=O)[C@@H](NC(=O)[C@H](CO)NC(=O)[C@@H](N)CCCNC(=N)N)CSSC[C@@H](C(N)=O)NC(=O)[C@H]([C@@H](C)O)NC(=O)CNC(=O)[C@@H]2CSSC[C@@H]3NC(=O)[C@H](CCCCN)NC(=O)[C@H](Cc4ccccc4)NC(=O)[C@H](C)NC(=O)[C@H]([C@@H](C)O)NC(=O)[C@H](CSSC[C@H](NC(=O)[C@H](Cc4ccccc4)NC(=O)[C@H](CO)NC(=O)[C@H](CC(C)C)NC(=O)[C@H](CCCNC(=N)N)NC(=O)[C@H](Cc4ccc(O)cc4)NC(=O)[C@H](CCCCN)NC(=O)[C@H](CCSC)NC(=O)[C@H](CO)NC(=O)[C@H](Cc4c[nH]cn4)NC(=O)[C@H](CCC(=O)O)NC3=O)C(=O)N[C@@H](CCCNC(=N)N)C(=O)N[C@@H](CCCCN)C(=O)N[C@@H]([C@@H](C)O)C(=O)N2)NC(=O)[C@H](CCCNC(=N)N)NC(=O)[C@H](CO)NC(=O)[C@H](CCCCN)NC(=O)[C@@H]2CCCN2C(=O)[C@H]([C@@H](C)CC)NC(=O)[C@H]([C@@H](C)O)NC(=O)[C@H](CC(=O)O)NC1=O [[Lys16, Glu18]ShK-amide] | 0.065 | 0.119 | 0.234
6 | CC[C@H](C)[C@@H]1NC(=O)[C@@H](NC(=O)[C@H](CO)NC(=O)[C@@H](N)CCCNC(=N)N)CSSC[C@@H](C(=O)N[C@@H](C)C(=O)O)NC(=O)[C@H]([C@@H](C)O)NC(=O)CNC(=O)[C@@H]2CSSC[C@@H]3NC(=O)[C@H](CCCCN)NC(=O)[C@H](Cc4ccccc4)NC(=O)[C@H](C)NC(=O)[C@H]([C@@H](C)O)NC(=O)[C@H](CSSC[C@H](NC(=O)[C@H](Cc4ccccc4)NC(=O)[C@H](CO)NC(=O)[C@H](CC(C)C)NC(=O)[C@H](CCCNC(=N)N)NC(=O)[C@H](Cc4ccc(O)cc4)NC(=O)[C@H](CCCCN)NC(=O)[C@H](CCC(N)=O)NC(=O)[C@H](CO)NC(=O)[C@H](Cc4c[nH]cn4)NC(=O)[C@H](CCCCN)NC3=O)C(=O)N[C@@H](CCCNC(=N)N)C(=O)N[C@@H](CCCCN)C(=O)N[C@@H]([C@@H](C)O)C(=O)N2)NC(=O)[C@H](CCCNC(=N)N)NC(=O)[C@H](CO)NC(=O)[C@H](CCCCN)NC(=O)[C@@H]2CCCN2C(=O)[C@H]([C@@H](C)CC)NC(=O)[C@H]([C@@H](C)O)NC(=O)[C@H](CC(=O)O)NC1=O [[Lys16,Gln21]ShK-Ala] | 4.01 | 0.168 | 0.206
7 | CCCC[C@@H]1NC(=O)[C@H](CO)NC(=O)[C@H](Cc2c[nH]cn2)NC(=O)[C@H](CCCCN)NC(=O)[C@@H]2CSSC[C@@H]3NC(=O)[C@H]([C@@H](C)O)NC(=O)[C@H](CCCCN)NC(=O)[C@H](CCCNC(=N)N)NC(=O)[C@H](CSSC[C@H](NC(=O)[C@H](CCCNC(=N)N)NC(=O)[C@H](CO)NC(=O)[C@H](CCCCN)NC(=O)[C@@H]4CCCN4C(=O)[C@H]([C@@H](C)CC)NC(=O)[C@H]([C@@H](C)O)NC(=O)[C@H](CC(=O)O)NC(=O)[C@H]([C@@H](C)CC)NC(=O)[C@@H](NC(=O)[C@H](CO)NC(=O)[C@@H](N)CCCNC(=N)N)CSSC[C@@H](C(=O)N[C@@H](CCC(=O)O)C(=O)O)NC(=O)[C@H]([C@@H](C)O)NC(=O)CNC3=O)C(=O)N[C@@H]([C@@H](C)O)C(=O)N[C@@H](C)C(=O)N[C@@H](Cc3ccccc3)C(=O)N[C@@H](CCCCN)C(=O)N2)NC(=O)[C@H](Cc2ccccc2)NC(=O)[C@H](CO)NC(=O)[C@H](CC(C)C)NC(=O)[C@H](CCCNC(=N)N)NC(=O)[C@H](Cc2ccc(O)cc2)NC(=O)[C@H](CCCCN)NC1=O [[Lys16,N1e21]ShK-Glu] | 22.5 | 0.386 | 0.621
8 | CC[C@H](C)[C@@H]1NC(=O)[C@@H](NC(=O)[C@H](CO)NC(=O)[C@@H](N)CCCNC(=N)N)CSSC[C@@H](C(=O)O)NC(=O)[C@H]([C@@H](C)O)NC(=O)CNC(=O)[C@@H]2CSSC[C@@H]3NC(=O)[C@H](CCCCN)NC(=O)[C@H](Cc4ccccc4)NC(=O)[C@H](C)NC(=O)[C@H]([C@@H](C)O)NC(=O)[C@H](CSSC[C@H](NC(=O)[C@H](Cc4ccccc4)NC(=O)[C@H](CO)NC(=O)[C@H](CC(C)C)NC(=O)[C@H](CCCNC(=N)N)NC(=O)[C@H](Cc4ccc(O)cc4)NC(=O)[C@H](CCCCN)NC(=O)[C@H](CCSC)NC(=O)[C@H](CO)NC(=O)[C@H](Cc4c[nH]cn4)NC(=O)[C@H](CCCNC(=N)N)NC3=O)C(=O)N[C@@H](CCCNC(=N)N)C(=O)N[C@@H](CCCCN)C(=O)N[C@@H]([C@@H](C)O)C(=O)N2)NC(=O)[C@H](CCCNC(=N)N)NC(=O)[C@H](CO)NC(=O)[C@H](CCCCN)NC(=O)[C@@H]2CCCN2C(=O)[C@H]([C@@H](C)CC)NC(=O)[C@H]([C@@H](C)O)NC(=O)[C@H](CC(=O)O)NC1=O [[Lys16,Arg18]ShK] | 0.425 | 0.077 | 0.097
